The values that follow come from PMC4839570, “Novel Anthra[1,2-c][1,2,5]Thiadiazole-6,11-Diones as Promising Anticancer Lead Compounds: Biological Evaluation, Characterization & Molecular Targets Determination” (PLoS ONE, 2016).

For data set [1], the system named is Mycobacterium tuberculosis H37Rv. Nature of the data set: Antimycobacterial susceptibility, BACTEC MGIT 960 SIRE. Type of data set: cell-based.
The test system of a further data set is MGH-U1R cell line. More on the design: method as in PMID 25431950. As to conditions: MGH-U1R; cited from earlier work.
A further data set relates to MGH-U1 cells. More on the design: method as in PMID 25431950. As to conditions: cited from earlier work.
Data set [2] deals with human intestinal Caco-2 cells. Nature of the data set: Caco-2 permeability. Type of data set: in vitro ADME. The source says: (§1) We tested both the absorptive (from the apical to basolateral compartments; A→BL) and secretory (from the basolateral to apical compartments; BL→A) permeabilities of our compound. We determined the amounts of compound transported at the specified time points and calculated the cumulative fractions [F (cum)] transported with respect to time according to the following equation [43]: F(cum)=∑^[CR(tk)−fCR(tk−1)].VR/CD.VD Where C is the concentration (μM), V is the volume (mL) of the receiver (R) or donor (D), tk is time point k, and f is the sample replacement factor calculated as f=(1−Vs/VR) , where VS is the volume of the sample (mL).
(§2) We determined the permeability coefficients as follows: Papp=(ΔF(cum)/Δt).(1/A).VD Where (ΔF(cum)/Δt) is the slope of the graph of F(cum) versus time (s), A is the area of the filter (cm^2), and VD is the volume of the donor compartment (mL).
(§3) We determined the active transport by calculating the uptake ratios and the intestinal efflux by calculating the efflux ratios using the following equations [8]: Uptake ratio=Papp(A→BL)/Papp(BL→A) Efflux ratio=Papp(BL→A)/Papp(A→BL) Where Papp(A→BL) is the absorptive permeability coefficient, and Papp(BL→A) is the secretory permeability coefficient.
(§4) The transport of our compounds through the Caco-2 cells was tested according to Hubatsch et al., 2007 [8]. Briefly, Caco-2 cells were seeded at a density of 2.6 × 10^5 cells/cm^2 onto Corning Transwell® polyester membrane inserts (1.2 cm^2 membrane diameter, 0.4 μm pore size, product #3460) in 12-well tissue culture plates and cultured in Dulbecco’s modified Eagle’s medium with high glucose (4500 mg/liter glucose) and L-glutamine (without pyruvate) supplemented with 10% FBS, 1% non-essential amino acids and 1% penicillin/streptomycin. Cells were incubated for at least 21 days at the specified conditions with the change of medium every two days. The TEER was measured using Millicell® ERS device for each insert after every change of medium to monitor the development of the cells monolayer. Cell monolayers with TEER values less than 300 Ω.cm^2 at the end of the maintenance period were not suitable for the experiment and discarded. The integrity of the cell monolayers were further confirmed by testing the phenol red permeability through the cells. The transport experiments were started by replacing the incubation culture media with the transport buffers with or without the tested compounds, the transport was tested in both directions (apical to basolateral and basolateral to apical). We used Hank’s balanced salt solution without phenol red as the transport medium buffered with either methanesulfonic acid (pH = 6.5) as the transport buffer in the apical compartment or buffered with HEPES and NaHCO3 (pH = 7.4) as the transport buffer in the basolateral compartment. NSC745885 was dissolved in the transport buffers with the aid of 1% DMSO to get final concentrations between 4–5 μM. Samples from the receiver compartments were withdrawn at different time intervals (0 min, 30 min, 45 min, 60 min, 75 min, 90 min, 120 min) and the amounts of transported drug were determined using the HPLC. After the transport experiments, the TEER was checked for every cell monolayer to assure that the monolayers were not compromised from the effect of the tested drug. The apparent permeabilities were calculated as mentioned in the previous section.

Another data set in a line: Caco-2 permeability. Type of data set: in vitro ADME, human. As to conditions: human, Caco-2.
Excerpt: as §1, §2, §3, §4

Values after ≈ are worked out from the molar mass of the structure shown.

Consider `O=C1c2ccccc2C(=O)c2c1cc(Cl)c1nsnc21` [NSC757963], for which the “Effect on M. tuberculosis H37Rv” value in data set [1] (1.25 μg/mL) was “Growth”; in data set [1] (2.5 μg/mL), “Growth”; in data set [1] (5 μg/mL), “Growth”; in data set [1] (7.5 μg/mL) it was “Growth”; in data set [1] (10 μg/mL) it was “Inhibition”; in data set [1] (15 μg/mL), “Inhibition”. In addition, the “Effect on M. tuberculosis H37Rv” value in data set [1] (20 μg/mL) is “Inhibition”. Further, in data set [1] (Mycobacterium tuberculosis, 336 h, H37Rv, 14 days), the MIC came out at 10 µg/mL (≈ 33.3 µM).

For the molecule `O=C1c2ccccc2C(=O)c2c1ccc1nsnc21` [NSC745885, anthra[1,2-c][1,2,5]thiadiazole-6,11-dione], the “concentration that completely suppressed growth of the resistant cell line” value in the data set on MGH-U1R cell line was 2.5 µM. In addition, the “concentration that inhibited the non-resistant cells” value in the data set on MGH-U1 cells was 2.5 µM. In addition, in data set [2], the Permeability ranking entry is listed as “High; completely absorbed”. The Uptake ratio in data set [2] (Papp(A→BL)/Papp(BL→A)) was found to be 0.898. In addition, the Papp A→B at 120 min in the data set “Caco-2 permeability” (4–5 μM, apical pH 6.5, basolateral pH 7.4, read-out: Absorptive permeability Papp(A→BL)) amounted to 31.8 ×10⁻⁶ cm/s. The Papp B→A at 120 min in “Caco-2 permeability” (4–5 μM, apical pH 6.5, basolateral pH 7.4, read-out: Secretory permeability Papp(BL→A)) came to 35.4 ×10⁻⁶ cm/s. Besides, in the data set “Caco-2 permeability” (Papp(BL→A)/Papp(A→BL)), the efflux ratio at 120 min came out at 1.11.
